Assay results reported in patent US8815891B2, “Tricyclic derivative or pharmaceutically acceptable salts thereof, preparation method thereof, and pharmaceutical composition containing the same” (Je Il Pharmaceutical Co., Ltd., priority 2008, dated 2014).
Where a name gives a salt, the structure may show the parent alone.

Legend:
[1] = system: HT-29 Cell line; assay: Cell growth inhibition of cancer cell lines (SRB assay), HT-29; type: cell-based
Protocol: The tests on cell growth inhibitory activity were performed with respect to A549 (US, ATCC), SK-OV-3 (Korea Research Institute of Chemical Technology; KRICT), HT-29 (US, ATCC), MCF-7 cell (US, ATCC), using Sulforhodamin-B <SRB> Assay (1989, US National Cancer Institute (NCI)) which was developed to measure the in vitro anti-cancer activity of the drug. […] The samples of the compounds of the Examples according to the present invention were used for the tests, and before the tests, the samples were dissolved in dimethylsulfoxide and diluted with the culture medium (RPMI 1640) to be used. The final concentration of the sample was varied in the range of 0.3˜100 μM. After the culture medium was removed from the 96 well plates, the diluted sample solution was added by 100 μl, and cultured in 37° C., 5% CO2 culture medium for 72 hours. The time zero (Tz) plates were collected at the time point of adding the sample. Upon completing the culture, the medium was removed from each well along with Tz plate, then cold 10% trichloroacetic acid (TCA) was added by 100 μl per well. The wells were left at 4° C. for 1 hour, so that the cells were fixed into the bottom of the plates. After the cells were fixed, the plates were rinsed with water five to six times to remove the remaining trichloroacetic acid solution, and moisture was completely dried at room temperature. The cells were dyed for 30 minutes by adding the dye solution in which 0.4% sulforhodamine-B was dissolved in 1% acetic acid solution, by 100 μl per dried wells. The above was rinsed again with 1% acetic acid solution five to six times to ensure that sulforhodamine-B which had not attached to the cells was removed. The plates were again dried at room temperature. 100 μl of 10 mM tris-buffer was then added to dissolve the dye, and the optical density (OD) at 520 nm was measured with the microplate reader. GI50 of the sample regarding cancer cell was calculated as explained below. Time zero (Tz), control value (C) and test value (T) were obtained, in which Tz corresponds to OD value of time at which the sample is applied and culture is started, C corresponds to OD value of the well which is cultured without treatment with the sample, and T corresponds to OD value of the well which is treated with the sample and then cultured. The degree of cell growth inhibition of the sample was measured using: If […] [Mathematical Formula 1]
Further, the ability of Examples 2, 42, 49, 52, 72, 74, 101 to increase growth inhibition effect of temozolomide and SN-38 at 2 μM was determined.

[2] = system: Rat Middle Cerebral Artery Occlusion (MCAO) Animal Model; assay: Neuroprotective effect in rat middle cerebral artery occlusion (MCAO) animal model; type: in vivo; conditions: for Infarct volume: 22 hours after reperfusion; for Percent of infraction decrease: vs control group
Protocol: Animal test was performed on male Sprague Dawley rats (KOATECH Co., Ltd., South Korea) weighing 280 to 340 g. Animals were given food and water ad libitum and adapted to the test environment for 1 week. The modified intraluminal filament technique as described by Zea Longa et al. (Stroke, 20:84-91, 1989) was used to induce MCAO. The rats were developed ischemic regions due to insufficient blood flow in striatum and temporal lobe which are the domain regions of the middle cerebral artery and depletion of oxygen and energy sources after the middle cerebral artery occlusion. In order to occlude the middle cerebral artery with the intraluminal suture method, 4-0 nylon suture was cut to 22 mm, and 2 mm of the terminal end was rounded by flame heating. In order to increase the effect of damage preventing and occlusion in the lumen, a probe was coated with silicon to 0.3 mm.
Rats were anaesthetized with isoflurane (3% for induction and 2% for surgical procedure) in a mixture of oxygen/nitrous oxide (30%/70%). The left common carotid artery (CCA) was exposed through a ventral midline incision in the neck. The external carotid artery (ECA), internal carotid artery (ICA), and CCA were carefully isolated and maintained in a Y-shape by use of silk suture. The upper external carotid artery was blocked by a thread, and a minute hole is bored 1 mm below the spot at which the external and internal carotid arteries bifurcate from the common carotid. The probe was inserted in the minute hole and fixed by a thread. The neck wound was closed and each animal was allowed to recover from anesthesia. 120 min after MCA occlusion, each animal was re-anesthetized, and the neck wound was re-opened to remove the thread. Along with the reperfusion, the compound of Example 74 was injected intravenously. 22 hours after the reperfusion, the animals were sacrificed by CO2 suffocation, decapitated, and 2 mm thick six coronal sections were obtained using rodent brain matrix. The coronal slices were incubated in phosphate-buffered saline (PBS) containing 2% 2,3,5-triphenyl tetrazolium chloride (TTC, Sigma) at 37° C. for 30 min, and then fixed in 4% phosphate-buffered formalin. After fixation these brain sections were scanned using a flat-bed scanner. The infarct area was determined by image J (NIH image version 1.59), and the total infarct volume was calculated by: Infarct volume (mm^3)=infarct […]×thickness of slice (2 mm) [Mathematical formula 3]
The statistical analysis of the decrease of infarct volume was performed by Mann Whitney test (*:p<0.05, **:p<0.01).

Q: With `COc1cc(CN2CCOCC2)cc2[nH]c(=O)c3c(c12)NCCC3` [Example 74, 10-Methoxy-8-(morpholinomethyl)-1,2,3,4-tetrahydrobenzo[h][1,6]naphthyridine-5(6H)-one dihydrochloride] as the compound, how does the “SN-38 PF50” value ([1]; 2 μM compound) read?
A: Its value is 3.5.

Q: And the “Temozolomide PF50” value ([1]; 2 μM compound)?
A: The value was >2.8.

Q: What about the GI50 ([1]; Homo sapiens, 72 hours) of the same compound?
A: Its GI50 is 30 µM.

Q: And the Infarct volume ([2]; 10 mg/kg intravenously at reperfusion)?
A: Its Infarct volume is 252.38 mm^3.

Q: And the “Percent of infraction decrease” value ([2]; 10 mg/kg intravenously)?
A: The value was 4%.

Q: And the Infarct volume ([2]; 20 mg/kg intravenously at reperfusion)?
A: The Infarct volume was 124.68 mm^3.

Q: And the “Percent of infraction decrease” value ([2]; 20 mg/kg intravenously)?
A: The value was 53%.

Q: And the Infarct volume ([2]; 30 mg/kg intravenously at reperfusion)?
A: Its Infarct volume is 162.88 mm^3.

Q: What about the “Percent of infraction decrease” value ([2]; 30 mg/kg intravenously) of the same compound?
A: The value was 38%.
